Results reported in patent US20080214508A1, “Methods of Administering Water-Soluble Prodrugs of Propofol” (MGI GP, INC., priority 2004, published 2008).
Where “and” joins values, the source holds several entries; their conditions need not be identical. Identical values can stand only once. Entries after “also recorded” stand apart in the source; their conditions may differ.

Key:
[1] = Plasma propofol pharmacokinetics in Beagle dogs after intravenous, subcutaneous or rectal prodrug; assay type: in vivo
Method: Upon administration, the test prodrug is converted in the body into propofol, its pharmacologically active metabolite. The pharmacokinetic profile, i.e. the blood plasma concentration of propofol derived from the test prodrug, was assessed in a separate experiment. Three male Beagle dogs (8.7-10.9 kg) received intravenous, subcutaneous, or rectal doses of the prodrug (see Tab. 1, below). Blood samples were taken at pre-dose, 2 (only for intravenous and subcutaneous), 5, 15, 30 minutes, 1, 1.5, 2, 3, 4, 6, and 8 hrs after administration of the test prodrug. Blood samples were centrifuged to obtain plasma and stored frozen until analysis. The outcome of this experiment is depicted in the following Table I: […]

[2] = system: Sprague-Dawley rats
Method: FIG. 2 illustrates the sedative/anesthetic effects of various doses of the experimental compound when administered via the intravenous route.
For comparison, an additional two animals received a subcutaneous injection of propofol (80 mg/kg) in its commercially available liquid emulsion formulation. For further comparison, the above-described pharmacological effects of subcutaneous administration of the tested prodrug were compared with those caused by an intravenous infusion: Under halothane anesthesia, young adult rats received femoral vein catheters which were exteriorized and attached to a liquid swivel via a protectant spring. About 20 minutes after catheterization, and after full behavioral recovery from halothane anesthesia, each animal was attached to an electronic infusion pump and was administered vehicle, or 5, 10, 20, 30, or 40 mg/kg of the test prodrug (n=2 per dose) in 1 ml total volume by gradual constant-rate intravenous infusion over 10 minutes. Behavioral rating as described above began immediately following the end of infusion.

[3] = system: human subjects; conditions: intravenous infusions; cited from earlier work
[4] = anesthetic induction doses; cited from earlier work
[5] = Beagle dog 46, rectal, 16.8 mg/kg prodrug, first suppository expelled, second given, nominal dose used
[6] = Beagle dog 47, rectal, 15.7 mg/kg prodrug
[7] = Beagle dog 48, rectal, 18.4 mg/kg prodrug
[8] = Beagle dogs, i.v., 16 mg/kg prodrug, average of 3 dogs
[9] = Beagle dogs, i.v., 16 mg/kg prodrug, individual dogs 46, 47, 48, disodium salt, 16 mg/kg
[10] = Beagle dogs, rectal, 15.7-18.4 mg/kg prodrug, average of 3 dogs
[11] = Beagle dogs, subcut., 16 mg/kg prodrug, average of 3 dogs
[12] = Beagle dogs, subcut., 16 mg/kg prodrug, individual dogs 46, 47, 48, disodium salt, 16 mg/kg
[13] = rats, intravenous infusion over 10 minutes, 5-40 mg/kg

SMILES: CC(C)c1cccc(C(C)C)c1OCOP(=O)([O-])[O-].[Na+].[Na+] [O-phosphonooxymethyl propofol disodium salt]
- AUCLast of plasma propofol [1, 5]: 471.4 ng·h/mL
- Cmax of plasma propofol [1, 5]: 220 ng/mL
- Tmax of plasma propofol [1, 5]: 60 min
- AUCLast of plasma propofol [1, 6]: 204.5 ng·h/mL
- Cmax of plasma propofol [1, 6]: 170 ng/mL
- Tmax of plasma propofol [1, 6]: 15 min
- AUCLast of plasma propofol [1, 7]: 46.7 ng·h/mL
- Cmax of plasma propofol [1, 7]: 90 ng/mL
- Tmax of plasma propofol [1, 7]: 15 min
- AUCLast of plasma propofol [1, 8]: 1728 ± 256.0 ng·h/mL
- Cmax of plasma propofol [1, 8]: 3840 ± 1190 ng/mL
- Tmax of plasma propofol [1, 8]: 1.8 min
- Tmax of plasma propofol ([1]; Beagle dogs, i.v., 16 mg/kg prodrug, individual dogs 46, 47, 48): 1.8 min
- AUCLast of plasma propofol [1, 9]: 1776 ng·h/mL and 1956 ng·h/mL and 1451 ng·h/mL
- Cmax of plasma propofol [1, 9]: 2570 ng/mL and 4930 ng/mL and 4010 ng/mL
- AUCLast of plasma propofol [1, 10]: 240.9 ± 214.7 ng·h/mL
- Cmax of plasma propofol [1, 10]: 160 ± 60 ng/mL
- Tmax of plasma propofol [1, 10]: 30 ± 25.8 min
- AUCLast of plasma propofol [1, 11]: 1322 ± 557.7 ng·h/mL
- Cmax of plasma propofol [1, 11]: 390 ± 90 ng/mL
- Tmax of plasma propofol [1, 11]: 60 ± 30 min
- AUCLast of plasma propofol [1, 12]: 1781 ng·h/mL and 1484 ng·h/mL and 701.6 ng·h/mL
- Cmax of plasma propofol [1, 12]: 460 ng/mL and 420 ng/mL and 290 ng/mL
- Tmax of plasma propofol [1, 12]: 90 min and 60 min and 30 min
- duration of effects relative to subcutaneous administration [2, 13]: shorter duration compared to subcutaneous administration
- onset of sedated behavior relative to subcutaneous injection [2, 13]: even more rapidly than after subcutaneous-injection
- onset of sedated behavior after dosing ([2]; rats, single subcutaneous injection, 50-300 mg/kg): 5 to 10 min
- duration of sedation ([2]; rats, subcutaneous, 50 mg/kg): 1 to 1.5 h
- sedative effect compared to vehicle ([2]; rats, subcutaneous, 50 mg/kg): mild to moderate sedation
- behavioral effect following sedation ([2]; rats, subcutaneous, 100, 200 and 300 mg/kg dose groups): loss of consciousness
- duration of loss of consciousness ([2]; rats, subcutaneous, two highest dose groups (200 and 300 mg/kg)): more than two hours
- time after administration until plateau effect is reached ([2]; subcutaneous administration): 10 to 15 min
- duration for which plateau effect is maintained ([2]; subcutaneous administration, depending on dose): up to about thirty minutes to two hours or longer
- potency of plasma propofol in suppressing EEG activity and causing a hypnotic effect, versus plasma propofol from infusions of propofol itself [3]: significantly more potent

SMILES: CC(C)c1cccc(C(C)C)c1O [propofol, 2,6-diisopropylphenol]
- sedative effect ([2]; rats, subcutaneous, 80 mg/kg, commercially available liquid emulsion formulation): only very mild or no sedative effects; also recorded: none or only very mild sedation
- patients with respiratory consequences, including reduction in tidal volume and apnea [4]: up to 83%
